BindingDB's records for doi:10.1016/j.bmcl.2013.08.111 (University of Michigan, 2013)
pIC50: −log10 of the molar value.

Molecular target: Catenin beta-1/Transcription factor 7-like 2 (Homo sapiens, UniProt P35222+Q9NQB0)
Test: Inhibition of human TCF4/ flag epitope-tagged beta-catenin (unknown origin) interaction transfected in human HCT116 cells after 24 hrs by beta-galactosidase/luciferase reporter gene assay

Sequence of Catenin beta-1/Transcription factor 7-like 2 (P35222 whole entry): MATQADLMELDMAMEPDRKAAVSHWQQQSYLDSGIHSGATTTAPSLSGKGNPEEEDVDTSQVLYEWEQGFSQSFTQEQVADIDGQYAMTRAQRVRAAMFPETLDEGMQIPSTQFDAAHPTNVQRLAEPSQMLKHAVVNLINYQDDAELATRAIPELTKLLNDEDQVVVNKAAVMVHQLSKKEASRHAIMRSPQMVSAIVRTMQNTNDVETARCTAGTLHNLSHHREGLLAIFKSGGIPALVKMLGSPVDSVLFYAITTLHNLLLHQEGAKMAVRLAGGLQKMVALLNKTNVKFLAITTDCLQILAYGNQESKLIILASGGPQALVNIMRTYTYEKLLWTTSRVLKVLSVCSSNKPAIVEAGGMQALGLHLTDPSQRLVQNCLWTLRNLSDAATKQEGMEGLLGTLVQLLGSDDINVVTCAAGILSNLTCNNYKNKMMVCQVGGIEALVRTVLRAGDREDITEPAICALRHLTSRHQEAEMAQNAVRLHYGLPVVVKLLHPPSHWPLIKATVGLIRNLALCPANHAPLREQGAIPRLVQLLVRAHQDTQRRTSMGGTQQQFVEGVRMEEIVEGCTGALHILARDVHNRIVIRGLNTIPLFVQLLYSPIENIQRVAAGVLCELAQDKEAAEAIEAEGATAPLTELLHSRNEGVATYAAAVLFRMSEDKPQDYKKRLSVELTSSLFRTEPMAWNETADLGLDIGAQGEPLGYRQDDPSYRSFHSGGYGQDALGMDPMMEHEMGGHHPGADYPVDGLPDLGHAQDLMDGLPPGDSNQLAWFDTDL
Sequence of Catenin beta-1/Transcription factor 7-like 2 (Q9NQB0 whole entry): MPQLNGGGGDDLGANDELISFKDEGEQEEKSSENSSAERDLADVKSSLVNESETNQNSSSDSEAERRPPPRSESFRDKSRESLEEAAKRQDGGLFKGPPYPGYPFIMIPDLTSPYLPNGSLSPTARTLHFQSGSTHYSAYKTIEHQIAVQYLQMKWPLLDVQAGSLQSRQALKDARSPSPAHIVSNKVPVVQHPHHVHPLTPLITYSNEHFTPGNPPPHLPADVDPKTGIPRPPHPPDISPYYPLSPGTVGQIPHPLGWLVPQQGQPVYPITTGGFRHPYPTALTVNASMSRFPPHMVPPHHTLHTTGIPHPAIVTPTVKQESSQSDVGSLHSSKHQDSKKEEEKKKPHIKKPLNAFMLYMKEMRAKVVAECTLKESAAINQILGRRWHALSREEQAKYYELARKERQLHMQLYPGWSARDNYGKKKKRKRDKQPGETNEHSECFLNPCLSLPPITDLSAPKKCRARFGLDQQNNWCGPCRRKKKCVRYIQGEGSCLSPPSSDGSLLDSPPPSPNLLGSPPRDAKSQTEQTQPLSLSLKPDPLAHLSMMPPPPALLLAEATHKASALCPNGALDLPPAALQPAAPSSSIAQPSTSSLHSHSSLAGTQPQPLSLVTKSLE

pIC50: 6.52
SMILES: Cn1nc(-c2ccc(Cl)cc2)nc2c(=O)n(C)c(=O)nc1-2 [3-(4-Chloro-phenyl)-1,6-dimethyl-1H-pyrimido[5,4-e][1,2,4]triazine-5,7-dione]
